How the values were obtained:
[1] = system: isolated rat brain hippocampal section preparation; assay: isolated rat brain hippocampal section preparation, extra-cellular field potentials after electrical stimulation; conditions: in vitro, single stimulus excitation and theta-burst stimulation
Experimental: The measured field potentials were recorded after a single stimulus excitation and theta-burst stimulation.

[2] = system: Fischer-344 rats; assay: tele-stereo-EEG on unrestrained rats; type: in vivo, rat; conditions: oral administration; frontal cortex, hippocampus, striatum, reticular formation
Experimental: Supplementing in-vivo experiments on unrestrained rats by means of quantitative detection of the electric brain activity (tele-stereo-EEG). Observed were adult, unrestrained Fischer-344 rats with implanted 4 bipolar concentric brain electrodes. A continuous in-vivo analysis of the electric field potential (tele-stereo-EEG) of the frontal cortex, hippocampus, striatum, and reticular formation was performed analogous to Dimpfel et. al 1986. Additionally, the mobility of the rats was measured using a video tracking system by GJB […] GmbH, […], Germany. […] The “tele-stereo-EEG” model on unrestrained rats was chosen as the in-vivo model to validate results that were obtained following the rat-hippocampus in-vitro experiments, in particular the crossing of the blood-brain barrier for the described substances.

SMILES	influence on hippocampal electrical activity [1]	electric field potentials (tele-stereo-EEG) [2]
N[C@@H](CCC(=O)O)C(=O)O [Glutamic acid, glutamic acid]	stimulating substances	–
O=C(O)[C@]1(O)C[C@@H](O)[C@@H](O)[C@H](O)C1 [quinic acid]	stimulating substances	principally contribute to the measured results
CCNC(=O)CC[C@H](N)C(=O)O [theanine, 5-N-ethyl-L-glutamine]	opposite effect	principally contribute to the measured results
O=C(O[C@@H]1C[C@@](O)(C(=O)O)C[C@@H](O)[C@@H]1O)c1cc(O)c(O)c(O)c1 [theogallin, 5-galloyl quinic acid]	stimulating substances	principally contribute to the measured results
